We go through six compounds from patent publication US8822505B2, “Azetidine derivatives” (Hoffmann-La Roche Inc., priority 2012, dated 2014).

The target in one assay is human Cat L (Homo sapiens (Human), UniProt P07711). Description: Cathepsin enzyme inhibition assay (human Cat L). The note with it: enzyme 1 nM, substrate Z-Val-Val-Arg-AMC 20 μM, pH 6.5. Type of assay: biochemical.
The next assay concerns the target human Cat S (Homo sapiens (Human), UniProt P25774). Description: Cathepsin enzyme inhibition assay (human Cat S). Type of assay: biochemical. The note with it: enzyme 1 nM, substrate Z-Val-Val-Arg-AMC 20 μM, pH 6.5.

Where a name gives a salt, the structure may show the parent alone.

human Cat S, sequence (P25774 115-331): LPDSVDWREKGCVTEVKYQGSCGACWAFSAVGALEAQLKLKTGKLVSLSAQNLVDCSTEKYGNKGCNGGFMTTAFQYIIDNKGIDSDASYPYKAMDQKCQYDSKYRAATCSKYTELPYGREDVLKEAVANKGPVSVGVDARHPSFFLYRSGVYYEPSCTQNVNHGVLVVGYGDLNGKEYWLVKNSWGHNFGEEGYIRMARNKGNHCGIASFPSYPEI
human Cat L, sequence (P07711 114-333): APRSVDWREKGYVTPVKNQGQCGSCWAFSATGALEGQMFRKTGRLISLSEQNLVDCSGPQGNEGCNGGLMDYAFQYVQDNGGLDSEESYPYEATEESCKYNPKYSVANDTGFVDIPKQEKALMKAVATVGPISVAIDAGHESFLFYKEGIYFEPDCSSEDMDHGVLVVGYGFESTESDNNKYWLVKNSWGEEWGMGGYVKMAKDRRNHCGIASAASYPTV

As to `Cn1cc(-c2ccc(S(=O)(=O)[C@@H]3C[C@@H](C(=O)NC4(C#N)CC4)N(C(=O)C4(c5ncc(Cl)cc5F)CCN4)C3)c(Cl)c2)cn1` (stereo partly drawn) [Example 47, (2S,4R)-1-[2-(5-Chloro-3-fluoro-pyridin-2-yl)-azetidine-2-carbonyl]-4-[2-chloro-4-(1-methyl-1H-pyrazol-4-yl)-benzenesulfonyl]-pyrrolidine-2-carboxylic acid (1-cyano-cyclopropyl)-amide hydrochloride], the IC50 at human Cat L was 82.1 nM; against human Cat S, 0.791 nM.
Take `Cn1cc(-c2ccc(S(=O)(=O)[C@@H]3C[C@@H](C(=O)NC4(C#N)CC4)N(C(=O)C4(c5ncc(Br)cc5F)CCN4)C3)c(Cl)c2)cn1` (stereo partly drawn) [Example 48, (2S,4R)-1-[2-(5-Bromo-3-fluoro-pyridin-2-yl)-azetidine-2-carbonyl]-4-[2-chloro-4-(1-methyl-1H-pyrazol-4-yl)-benzenesulfonyl]-pyrrolidine-2-carboxylic acid (1-cyano-cyclopropyl)-amide hydrochloride]: the IC50 at human Cat L amounted to 98.9 nM; against human Cat S it was 1.85 nM.
On the same counts, the results for `C[C@H](Oc1ccc(S(=O)(=O)[C@@H]2C[C@@H](C(=O)NC3(C#N)CC3)N(C(=O)C3(c4ncc(Br)cc4F)CN(CC(F)F)C3)C2)c(Cl)c1)C(F)(F)F` [Example 49, (2S,4R)-1-[3-(5-Bromo-3-fluoro-pyridin-2-yl)-1-(2,2-difluoro-ethyl)-azetidine-3-carbonyl]-4-[2-chloro-4-((S)-2,2,2-trifluoro-1-methyl-ethoxy)-benzenesulfonyl]-pyrrolidine-2-carboxylic acid (1-cyano-cyclopropyl)-amide] are 5 nM and 1 nM.
Take `C[C@H](Oc1ccc(S(=O)(=O)[C@@H]2C[C@@H](C(=O)NC3(C#N)CC3)N(C(=O)C3(c4ncc(Br)cc4F)CN(C=O)C3)C2)c(Cl)c1)C(F)(F)F` [Example 50, (2S,4R)-1-[3-(5-Bromo-3-fluoro-pyridin-2-yl)-1-formyl-azetidine-3-carbonyl]-4-[2-chloro-4-((S)-2,2,2-trifluoro-1-methyl-ethoxy)-benzenesulfonyl]-pyrrolidine-2-carboxylic acid (1-cyano-cyclopropyl)-amide]: the IC50 came out at 5 nM on human Cat L and 0.9 nM at human Cat S.
With `COC(=O)N1CC(C(=O)N2C[C@H](S(=O)(=O)c3ccc(O[C@@H](C)C(F)(F)F)cc3Cl)C[C@H]2C(=O)NC2(C#N)CC2)(c2ncc(Br)cc2F)C1` [Example 51, 3-(5-Bromo-3-fluoro-pyridin-2-yl)-3-[(2S,4R)-4-[2-chloro-4-((S)-2,2,2-trifluoro-1-methyl-ethoxy)-benzenesulfonyl]-2-(1-cyano-cyclopropylcarbamoyl)-pyrrolidine-1-carbonyl]-azetidine-1-carboxylic acid methyl ester], the IC50 was 7 nM against human Cat L and 2 nM on human Cat S.
Take `C[C@H](Oc1ccc(S(=O)(=O)[C@@H]2C[C@@H](C(=O)NC3(C#N)CC3)N(C(=O)C3(c4ncc(Br)cc4F)CN(CC(F)(F)F)C3)C2)c(Cl)c1)C(F)(F)F` [Example 52, (2S,4R)-1-[3-(5-Bromo-3-fluoro-pyridin-2-yl)-1-(2,2,2-trifluoro-ethyl)-azetidine-3-carbonyl]-4-[2-chloro-4-((S)-2,2,2-trifluoro-1-methyl-ethoxy)-benzenesulfonyl]-pyrrolidine-2-carboxylic acid (1-cyano-cyclopropyl)-amide]: the IC50 on human Cat L is 6 nM; against human Cat S, 1 nM.
